Reference: patent US12677850B2, “Stevia blends containing rebaudioside B” (Tate & Lyle Solutions USA LLC, priority 2011, dated 2026)

Key:
[1] = previous reports; cited from earlier work
[2] = format: physicochemical; conditions: pH 3
Procedure: To determine the solubility of rebaudioside A and rebaudioside B in certain solutions, four stock solutions were prepared. A 10× concentrated citric acid/sodium citrate pH 3 stock buffer solution was prepared by dissolving 0.9 g anhydrous citric acid and 0.26 g of sodium citrate dihydrate in water to make 100 mL of buffer (0.047 M citric acid+0.0088 M sodium citrate). A 2500 ppm (nominal) solution of rebaudioside A was prepared by dissolving 0.125 g of GLG RA 97 to make 50 mL of solution. A 2500 ppm (nominal) solution of stevioside was prepared by dissolving 0.125 g of GLG STV 97 to make 50 mL of solution. A 1000 ppm (nominal) solution of rebaudioside B was prepared by diluting 56 mL of a solution assayed at 1790 ppm to make 100 mL of solution.
These solutions were mixed as 1 mL total amounts by micropipetting the volumes, in microliters, into 1.5 mL microcentrifuge tubes As shown in Table 14.
After standing for […] (~100 hours), the tubes were spun in a bench top microcentrifuge to pelletize the precipitate. The clear supernate was sampled into vials and assayed for glycosides using a reverse phase high performance liquid chromatograph (HPLC) gradient method with UV detection (Waters 2695 Separations Module equipped with a Waters 2487 Dual X Absorbance Detector or equivalent instrumentation) that is summarized in Table 15. The HPLC conditions were as follows:
The supernatant data collected from the HPLC were processed using DESIGN EXPERT 8 software. Briefly, the data were entered into the program as “factor” data as a 2 factor-5 level general factorial design as the nominal data which were then converted to numerical data and replaced by the actual HPLC results. The software then selected a model that predicted the concentration (solubility) of rebaudioside B as a function of the concentration of rebaudioside A and stevioside in the supernatant. The software also calculated a number of statistical factors that indicated the significance of the model parameters.

rebaudioside B
sweetness relative to rebaudioside A [1]: one-half to two-thirds
solubility [2]: limited
